According to US20100314318A1, “HALOGENATED AMIDE BIOCIDAL COMPOUNDS AND METHODS FOR TREATING WATER SYSTEMS AT NEAR NEUTRAL TO HIGH PH” (priority 2009, published 2010):
Like-named read-outs stand apart in the source and are kept apart here.

Tests used:
[1] = tested on: bacteria isolated from Cooling Tower water; assay: Efficacy in sterile artificial Cooling Tower water (approx. pH 8.5); assay type: cell-based; conditions: 30° C.
Free Legionella = assay type: cell-based, Legionella pneumophila
[2] = tested on: amoeba (Acanthamoeba polypohaga) fed Legionella pneumophila (AfLp); assay type: cell-based; conditions: Amoeba fed Legionella
[3] = tested on: bacteria isolated from field; assay: Efficacy in semi-synthetic metal working fluid; assay type: cell-based; conditions: room temperature, MWF
[4] = tested on: Pseudomonas aeruginosa ATCC 10145; assay: Bactericidal efficacy in synthetic salts water pH 8.5; assay type: cell-based; conditions: for Dosage required for 3 log10 bacterial reduction (ppm, active): 37° C.
Protocol: A sterile synthetic salts water is prepared and inoculated with Pseudomonas aeruginosa ATCC 10145 at about 10^7 CFU/mL. The synthetic water is prepared to contain (in 1 liter deionized water) the following: CaCl2, 0.2203 g; MgSO4, 0.1847 g; and NaHCO3, 0.2033 g. The final pH of the synthetic cooling water is adjusted to 8.5. Aliquots of the cell suspension are then treated with biocides at selected dosage levels. The same contaminated water sample without biocide is used as control. After incubating at 37° C. for different time intervals, numbers of surviving bacteria are enumerated using a serial dilution method. After incubating for 24 hr, all cell suspensions are reinoculated with Pseudomonas aeruginosa ATCC 10145 at 10^6 CFU/mL. The efficacy results for […]

Structure (SMILES): CCCCCCCC[N+](C)(C)CCCCCCCC.[Cl-] [Dioctyl dimethyl ammonium chloride]
- Minimum biocide dosage (ppm, active) needed for at least 3 log10 bacterial reduction ([1]; 1 h): 29.0 ppm
- Minimum biocide dosage (ppm, active) needed for at least 3 log10 bacterial reduction ([1]; 3 h): 29.0 ppm
- Minimum biocide dosage (ppm, active) needed for at least 3 log10 bacterial reduction ([1]; 24 h): 56.0 ppm
- Minimum biocide dosage (ppm, active) needed for at least 3 log10 bacterial reduction ([1]; 48 h, reinoculated): 56.0 ppm
- Minimum biocide dosage (ppm, active) needed for at least 3 log10 bacterial reduction ([1]; 72 h, reinoculated): 79.0 ppm
- Minimum biocide dosage (ppm, active) needed for at least 3 log10 bacterial reduction ([1]; 96 h, reinoculated): >79.0 ppm

Structure (SMILES): CCCCCCCCCC[N+](C)(C)CCCCCCCCCC.[Cl-] [DDAC, didecyl dimethyl ammonium chloride]
- Active concentration (ppm) required for complete kill (6 log reduction) (Free Legionella; 2 hours): 20 ppm
- Active concentration (ppm) required for complete kill (6 log reduction) (Free Legionella; 24 hours): 15 ppm
- Active concentration (ppm) required for complete kill (6 log reduction) ([2]; 2 hours): 60 ppm
- Active concentration (ppm) required for complete kill (6 log reduction) ([2]; 24 hours): 40 ppm

Structure (SMILES): O=CCCCC=O [Glutaraldehyde]
- Minimum biocide dosage (ppm, active) needed for at least 3 log10 bacterial reduction ([1]; 1 h): 36.0 ppm
- Minimum biocide dosage (ppm, active) needed for at least 3 log10 bacterial reduction ([1]; 3 h): 26.0 ppm
- Minimum biocide dosage (ppm, active) needed for at least 3 log10 bacterial reduction ([1]; 24 h): 26.0 ppm
- Minimum biocide dosage (ppm, active) needed for at least 3 log10 bacterial reduction ([1]; 48 h, reinoculated): 51.0 ppm
- Minimum biocide dosage (ppm, active) needed for at least 3 log10 bacterial reduction ([1]; 72 h, reinoculated): 51.0 ppm
- Minimum biocide dosage (ppm, active) needed for at least 3 log10 bacterial reduction ([1]; 96 h, reinoculated): 71.0 ppm
- Active concentration (ppm) required for complete kill (6 log reduction) (Free Legionella; 2 hours): 10 ppm
- Active concentration (ppm) required for complete kill (6 log reduction) (Free Legionella; 24 hours): 5 ppm
- Active concentration (ppm) required for complete kill (6 log reduction) ([2]; 2 hours): 20 ppm
- Active concentration (ppm) required for complete kill (6 log reduction) ([2]; 24 hours): 15 ppm

Structure (SMILES): CCN1CN(CC)CN(CC)C1 [Triazine, 1,3,5-triethylhexahydro-1,3,5-triazine]
- Minimum dosage (ppm, active) required for at least 3 log10 reduction in bacterial counts ([3]; 2 h): 1934 ppm
- Minimum dosage (ppm, active) required for at least 3 log10 reduction in bacterial counts ([3]; 4 h): 1487 ppm
- Minimum dosage (ppm, active) required for at least 3 log10 reduction in bacterial counts ([3]; 24 h): 1144 ppm
- Minimum dosage (ppm, active) required for at least 3 log10 reduction in bacterial counts ([3]; 48 h): 1144 ppm
- Minimum dosage (ppm, active) required for at least 3 log10 reduction in bacterial counts ([3]; 72 h): 1144 ppm
- Minimum dosage (ppm, active) required for at least 3 log10 reduction in bacterial counts ([3]; 96 h): 1144 ppm

Structure (SMILES): CC1(C)C(=O)N(Cl)C(=O)N1Br [BCDMH, 1-Bromo-3-chloro-5,5-dimethylhydantoin]
- Minimum biocide dosage (ppm, active) needed for at least 3 log10 bacterial reduction ([1]; 1 h): 7.0 ppm
- Minimum biocide dosage (ppm, active) needed for at least 3 log10 bacterial reduction ([1]; 3 h): 26.0 ppm
- Minimum biocide dosage (ppm, active) needed for at least 3 log10 bacterial reduction ([1]; 24 h): >70.0 ppm
- Minimum biocide dosage (ppm, active) needed for at least 3 log10 bacterial reduction ([1]; 48 h, reinoculated): >70.0 ppm
- Minimum biocide dosage (ppm, active) needed for at least 3 log10 bacterial reduction ([1]; 72 h, reinoculated): >70.0 ppm
- Minimum biocide dosage (ppm, active) needed for at least 3 log10 bacterial reduction ([1]; 96 h, reinoculated): >70.0 ppm

Structure (SMILES): N#CC(Br)(Br)C(=O)NCCCO [DBCHA, 2,2-Dibromo-2-cyano-N-(3-hydroxypropyl)acetamide]
- Dosage required for 3 log10 bacterial reduction (ppm, active) ([4]; 1 hr, pH 8.5): 4.4 ppm
- Dosage required for 3 log10 bacterial reduction (ppm, active) ([4]; 3 hr, pH 8.5): 4.4 ppm
- Dosage required for 3 log10 bacterial reduction (ppm, active) ([4]; 24 hr, pH 8.5): 9.9 ppm
- Dosage required for 3 log10 bacterial reduction (ppm, active) ([4]; 48 hr, pH 8.5, reinoculated after 24 hr): 33.3 ppm
- long term bactericidal efficacy compared with DBNPA ([4]; after 48 hour incubation and rechallenge with P. aeruginosa cells): better long term efficacy than DBNPA
